From patent US6225494A, “Trisubstituted phenyl derivatives having retinoid agonist or inverse agonist type biological activity” (Allergan Sales, Inc., priority 1999, dated 2001)

Tests used:
Experiment in all cases: RAR-P-GR holoreceptor transactivation assay (PGR assay)
Type in all cases: cell-based
RARα = target: T1, RARα (Homo sapiens, UniProt P10276, E106G/G107S/G110V); settings: for EC50: CV-1 cells, luciferase reporter, 18 hours; for Emax: relative to all-trans-retinoic acid, read-out: % Efficiency RARα
T1 construct: expressed in transfected cells; host or cells: CV-1
T1 sequence (P10276 1-462 E106G/G107S/G110V): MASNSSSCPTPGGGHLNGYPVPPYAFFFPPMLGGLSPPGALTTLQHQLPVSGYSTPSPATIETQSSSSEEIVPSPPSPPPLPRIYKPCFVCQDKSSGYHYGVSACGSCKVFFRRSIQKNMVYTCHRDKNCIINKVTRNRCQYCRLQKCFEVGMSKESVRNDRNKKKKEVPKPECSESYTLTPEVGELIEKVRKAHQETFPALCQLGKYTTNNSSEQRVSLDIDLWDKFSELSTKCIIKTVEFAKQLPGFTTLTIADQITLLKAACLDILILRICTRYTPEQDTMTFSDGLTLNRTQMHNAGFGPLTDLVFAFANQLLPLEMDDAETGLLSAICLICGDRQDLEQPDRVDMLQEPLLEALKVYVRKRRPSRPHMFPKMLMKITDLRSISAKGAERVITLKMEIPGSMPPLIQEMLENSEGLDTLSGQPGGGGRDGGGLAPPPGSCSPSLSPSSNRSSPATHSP
T1 sequence (P19793 1-462 partner): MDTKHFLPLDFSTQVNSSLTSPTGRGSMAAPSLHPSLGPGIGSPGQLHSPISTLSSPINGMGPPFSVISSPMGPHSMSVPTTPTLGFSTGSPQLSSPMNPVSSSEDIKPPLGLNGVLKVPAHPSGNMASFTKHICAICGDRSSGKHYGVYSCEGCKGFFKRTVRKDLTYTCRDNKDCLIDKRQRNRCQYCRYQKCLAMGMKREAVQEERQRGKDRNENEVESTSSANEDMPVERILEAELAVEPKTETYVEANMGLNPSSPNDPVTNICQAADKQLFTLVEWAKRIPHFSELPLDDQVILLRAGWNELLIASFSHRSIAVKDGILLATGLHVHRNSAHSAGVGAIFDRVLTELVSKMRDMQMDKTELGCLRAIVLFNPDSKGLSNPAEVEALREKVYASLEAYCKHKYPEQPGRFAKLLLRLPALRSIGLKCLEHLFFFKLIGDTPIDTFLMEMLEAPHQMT
Method: (§1) Still another transactivation assay, the "PGR assay" is described in the publication KIein et al. J. Biol. Chem. 271, 22692-22696 (1996) which is expressly incorporated herein by reference, and a detailed description is also provided below. The results of the PGR assay are also expressed in EC50 numbers (nanomolar concentration).
(§2) RAR-P-GR Holoreceptor Transactivation Assay
(§3) CV-1 cells (4×10^5 cells/well) were transiently transfected with the luciferase reporter plasmid MTV-4(R5G)-Luc (0.7 μg/well) containing four copies of the R5G retinoid DNA response element along with the RXRα expression plasmid pRS-hRXRα (0.1 μg/well) and one of the RAR-P-GR expression plasmids (0.05 μg/well) in 12 well plates via calcium phosphate precipitation Chen et al. (1987) Mol. Cell. Biol. 7, 2745-2752, as described by Vein et al. in J. Biol. Chem. 271, 22692, referenced above. The three different RAR-P-GR expression plasmids, pRS-RARα-P-GR, pcDNA3-RARβ-P-GR and pcDNA3-RARγ-P-GR, express RARα, RARβ and RARγ receptors, respectively, which contain modified DNA binding domains such that their "P-boxes" have been altered to that of the glucocorticoid receptor. These RAR-P-GR receptors bind to DNA as heterodimeric complexes with RXR. Specifically, the RAR-P-GR receptors bind retinoic acid response elements designated R5G, comprised of two RAR half sites (nucleotide sequence 5'-GGTTCA-3') separated by 5 base pairs in which the 3'-half site has been modified to that of a glucocorticoid receptor half site, 5'-AGAACA-3'. To allow for various in transfection efficiency a β-galactosidase expression plasmid (0.01 ug/well) was used as an internal control. Alternatively, the assay was performed in a 96-well microtiter plate format (5000 cells/well) in a manner which was identical to that described above except 1/5 of the amount of the DNA-calcium phosphate precipitant (20 μl instead of 100 μl) was applied to each well. Eighteen hours after introduction of the DNA precipitants, cells were rinsed with phosphate buffered saline (PBS) and fed with D-MEM (Gibco-BRL) containing 10% activated charcoal extracted fetal bovine serum (Gemini Bio-Products). After rinsing with PBS, cells were lysed and luciferase activity was measured as previously described in de Wet et al. (1987) Mol. Cell. Biol. 7, 725-737. Luciferase values represent the mean±SEM of triplicate determinations normalized to β-galactosidase activity.

RARβ = target: T2, RARβ (Homo sapiens, UniProt P10826, E106G/G107S/G110V); settings: for EC50: CV-1 cells, luciferase reporter, 18 hours; for Emax: relative to all-trans-retinoic acid, read-out: % Efficiency RARβ
T2 construct: expressed in transfected cells; host or cells: CV-1
T2 sequence (P10826 1-448 isoform P10826-2 E99G/G100S/G103V): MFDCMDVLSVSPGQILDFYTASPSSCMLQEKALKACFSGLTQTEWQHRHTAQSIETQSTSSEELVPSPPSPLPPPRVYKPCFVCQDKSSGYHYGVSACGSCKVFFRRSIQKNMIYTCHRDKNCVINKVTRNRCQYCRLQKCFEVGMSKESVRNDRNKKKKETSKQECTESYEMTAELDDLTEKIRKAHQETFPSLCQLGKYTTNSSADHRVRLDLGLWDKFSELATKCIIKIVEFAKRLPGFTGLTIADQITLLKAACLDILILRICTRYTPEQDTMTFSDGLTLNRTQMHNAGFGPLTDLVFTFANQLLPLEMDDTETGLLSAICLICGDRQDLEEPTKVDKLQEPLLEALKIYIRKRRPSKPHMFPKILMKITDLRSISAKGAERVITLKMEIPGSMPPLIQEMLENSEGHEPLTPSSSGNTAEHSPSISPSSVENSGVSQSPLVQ
T2 sequence (P19793 1-462 partner): T1 sequence (P19793 1-462 partner)
Method: as §1, §2, §3

RARγ = target: T3, RARγ (Homo sapiens, UniProt P13631, E108G/G109S/G112V); settings: for EC50: CV-1 cells, luciferase reporter, 18 hours; for Emax: relative to all-trans-retinoic acid, read-out: % Efficiency RARγ
T3 construct: expressed in transfected cells; host or cells: CV-1
T3 sequence (P13631 1-454 E108G/G109S/G112V): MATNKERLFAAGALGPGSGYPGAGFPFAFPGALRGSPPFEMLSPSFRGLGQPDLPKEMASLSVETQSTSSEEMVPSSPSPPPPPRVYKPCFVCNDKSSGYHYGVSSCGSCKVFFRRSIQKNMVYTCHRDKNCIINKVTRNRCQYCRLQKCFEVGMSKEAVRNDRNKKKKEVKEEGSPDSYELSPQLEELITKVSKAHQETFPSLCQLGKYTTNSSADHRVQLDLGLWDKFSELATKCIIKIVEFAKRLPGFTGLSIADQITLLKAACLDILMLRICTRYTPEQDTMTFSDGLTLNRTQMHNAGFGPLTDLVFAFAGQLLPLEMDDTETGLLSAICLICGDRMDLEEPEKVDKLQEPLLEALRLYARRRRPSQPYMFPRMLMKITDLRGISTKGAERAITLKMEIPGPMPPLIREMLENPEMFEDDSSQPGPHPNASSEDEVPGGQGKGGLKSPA
T3 sequence (P19793 1-462 partner): T1 sequence (P19793 1-462 partner)
Method: as §1, §2, §3

EC50 (RARα) [µM]	Emax (RARα) [%]	EC50 (RARβ) [µM]	Emax (RARβ) [%]	EC50 (RARγ) [µM]	Emax (RARγ) [%]	Structure (SMILES)
> 10	0	> 10	2	> 10	0	Cc1ccc(C(=O)c2cc(C#Cc3ccc(C(=O)O)c(F)c3)c(C)cc2O)cc1 [Compound 25, 4-[[4'-Hydroxy-2'-methyl-5'-(4"-methyl)benzoyl]phenylethynyl]-2-fluoro-benzoic acid]
> 10	0	> 10	0	> 10	1	C=C(c1ccc(C)cc1)c1cc(C#Cc2ccc(C(=O)O)cc2)ccc1OC(C)C [Compound 28, 4-[[4'-Isopropoxy-3'-(1-p-tolyl)vinyl]phenylethynyl]benzoic acid]
> 10	0	> 10	0	> 10	1	C=C(c1ccc(C)cc1)c1cc(C#Cc2ccc(C(=O)O)c(F)c2)ccc1OC(C)C [Compound 29, 4-[[4'-Isopropoxy-3'-(1-p-tolyl)vinyl]phenylethynyl]-2-fluoro-benzoic acid]
> 10	0	> 10	4	> 10	2	C=C(c1cccc(C)c1)c1cc(C#Cc2ccc(C(=O)O)cc2)ccc1OC(C)C [Compound 31, 4-[[4'-Isopropoxy-3'-(1-m-tolyl)vinyl]phenylethynyl]benzoic acid]

Further lines, the molecule ahead of its results:

Structure (SMILES)	EC50 (RARα) [µM]	Emax (RARα) [%]	EC50 (RARβ) [µM]	Emax (RARβ) [%]	EC50 (RARγ) [µM]	Emax (RARγ) [%]
C=C(c1ccc(C)cc1)c1cccc(C#Cc2ccc(C(=O)O)cc2)c1 [Compound 20, 4-[[3'-(1-p-Tolyl)vinyl]phenylethynyl]benzoic acid]	> 10	9	> 10	5	> 10	1
Cc1ccc(C(=O)c2cc(C#Cc3ccc(C(=O)O)cc3)ccc2O)cc1 [Compound 5, 4-[[4'-hydroxy-3'-(4"-methyl)benzoyl]phenylethynyl]benzoic acid]	> 10	1	> 10	3	> 10	1
C=C(c1ccc(C)cc1)c1cc(C#Cc2ccc(C(=O)O)cc2)ccc1OCOC [Compound 9, 4-[[4'-methoxymethoxy-3'-(1-p-tolyl)vinyl]phenylethynyl]benzoic acid]	> 10	1	> 10	3	> 10	5
C=C(c1ccc(C)cc1)c1cc(C#Cc2ccc(C(=O)O)cc2)ccc1O [Compound 8, 4-[[4'-Hydroxy-3'-(1-p-tolyl)vinyl]phenylethynyl]benzoic acid]	> 10	1	> 10	3	> 10	3
C=C(c1ccc(C)cc1)c1cc(C#Cc2ccc(C(=O)O)cc2)ccc1OC [Compound 12, 4-[[4'-Methoxy-3'-(1-p-tolyl)vinyl]phenylethynyl]benzoic acid]	> 10	0	> 10	1	> 10	5
COc1ccc(C#Cc2ccc(C(=O)O)cc2)cc1C(=O)c1ccc(C)cc1 [Compound 22, 4-[[4'-methoxy-3'-(4"-methyl)benzoyl]phenylethynyl]benzoic acid]	> 10	0	> 10	0	> 10	0
COCOc1ccc(C#Cc2ccc(C(=O)O)cc2)cc1C(=O)c1ccc(C)cc1 [Compound 13]	> 10	0	> 10	0	> 10	0
